Test results from the Kinase Knowledgebase extract (Sharma et al. 2016).

Target: ROCK2 (human) (UniProt O75116)
Assay: Inhibition of ROCK2 Kinase Activity

ROCK2 (human), sequence (O75116 whole entry, looked up): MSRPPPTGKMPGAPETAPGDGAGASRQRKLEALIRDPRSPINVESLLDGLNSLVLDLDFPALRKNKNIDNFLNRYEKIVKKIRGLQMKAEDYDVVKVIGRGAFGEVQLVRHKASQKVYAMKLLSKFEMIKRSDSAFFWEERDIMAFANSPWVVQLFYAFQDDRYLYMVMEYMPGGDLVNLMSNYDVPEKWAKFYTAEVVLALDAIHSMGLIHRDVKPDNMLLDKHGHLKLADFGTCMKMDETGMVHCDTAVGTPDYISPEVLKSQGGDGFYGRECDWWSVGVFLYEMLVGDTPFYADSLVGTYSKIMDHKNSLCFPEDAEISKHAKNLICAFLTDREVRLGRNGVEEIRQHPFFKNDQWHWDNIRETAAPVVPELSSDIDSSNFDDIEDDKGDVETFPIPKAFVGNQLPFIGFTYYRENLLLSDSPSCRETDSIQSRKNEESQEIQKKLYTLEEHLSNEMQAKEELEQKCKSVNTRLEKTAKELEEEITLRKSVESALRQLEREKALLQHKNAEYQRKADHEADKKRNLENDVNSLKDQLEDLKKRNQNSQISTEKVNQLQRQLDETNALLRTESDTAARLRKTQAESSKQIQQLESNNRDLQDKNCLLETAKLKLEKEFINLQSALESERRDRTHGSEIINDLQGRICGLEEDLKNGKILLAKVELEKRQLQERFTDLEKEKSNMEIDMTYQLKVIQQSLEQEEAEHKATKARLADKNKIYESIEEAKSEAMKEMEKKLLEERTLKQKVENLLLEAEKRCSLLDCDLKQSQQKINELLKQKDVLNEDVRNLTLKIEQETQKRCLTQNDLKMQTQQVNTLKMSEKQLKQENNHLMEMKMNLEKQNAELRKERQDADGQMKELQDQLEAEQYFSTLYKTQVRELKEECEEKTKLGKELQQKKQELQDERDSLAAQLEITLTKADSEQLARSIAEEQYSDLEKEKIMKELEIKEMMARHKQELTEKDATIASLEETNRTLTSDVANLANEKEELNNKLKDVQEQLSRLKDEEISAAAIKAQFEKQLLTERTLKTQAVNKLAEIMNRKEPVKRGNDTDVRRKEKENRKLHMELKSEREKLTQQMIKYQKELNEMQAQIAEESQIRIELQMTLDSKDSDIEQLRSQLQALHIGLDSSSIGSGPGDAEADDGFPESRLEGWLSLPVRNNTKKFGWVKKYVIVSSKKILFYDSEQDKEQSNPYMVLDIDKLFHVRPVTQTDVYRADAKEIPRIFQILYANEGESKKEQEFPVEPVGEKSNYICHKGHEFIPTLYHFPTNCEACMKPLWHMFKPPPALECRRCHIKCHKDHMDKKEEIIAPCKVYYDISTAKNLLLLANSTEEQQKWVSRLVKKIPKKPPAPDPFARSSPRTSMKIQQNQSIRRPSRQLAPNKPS

Row | IC50 [nM] | SMILES
1 | 500 to 5000 | NC(CNC(=O)C1CC1)c1ccc(C(=O)Nc2ccncc2)cc1 (stereo not given)
2 | 50 to 500 | NC(CNC(=O)CC1C=CCC1)c1ccc(C(=O)Nc2ccncc2)cc1 (stereo not given)
3 | 50 to 500 | NC(CNC(=O)C1(c2ccc(F)c(F)c2)CCC1)c1ccc(C(=O)Nc2ccncc2)cc1 (stereo not given)
4 | 50 to 500 | NC(CNC(=O)Cc1ccc(F)c(F)c1)c1ccc(C(=O)Nc2ccncc2)cc1 (stereo not given)
5 | 50 to 500 | COc1cccc(NC(=O)NCC(N)c2ccc(C(=O)Nc3ccncc3)cc2)c1 (stereo not given)
6 | 500 to 5000 | NC(CNC(=O)Cc1ccc2ccccc2c1)c1ccc(C(=O)Nc2ccncc2)cc1 (stereo not given)
7 | 500 to 5000 | NC(CNC(=O)c1cccc2ccccc12)c1ccc(C(=O)Nc2ccncc2)cc1 (stereo not given)
8 | 500 to 5000 | CN(CC(N)c1ccc(C(=O)Nc2ccncc2)cc1)C(=O)C1(c2ccc(Cl)cc2)CCCC1 (stereo not given)
9 | 50 to 500 | Cc1ccc(CNC(=O)CC(N)c2ccc(C(=O)Nc3ccncc3)cc2)cc1Cl (stereo not given)
10 | 50 to 500 | NC(CNC(=O)NCc1ccccc1)c1ccc(C(=O)Nc2ccncc2)cc1 (stereo not given)
11 | 500 to 5000 | COc1ccc2[nH]c(C(=O)NCC(N)c3ccc(C(=O)Nc4ccncc4)cc3)cc2c1 (stereo not given)
12 | 500 to 5000 | NC(CNC(=O)c1cccc(F)c1)c1ccc(C(=O)Nc2ccncc2)cc1 (stereo not given)
13 | 50 to 500 | NC(CNC(=O)CC1Cc2ccccc2C1)c1ccc(C(=O)Nc2ccncc2)cc1 (stereo not given)
14 | 50 to 500 | N[C@H](CC(=O)NCc1ccc(F)cc1)c1ccc(C(=O)Nc2ccncc2)cc1
15 | 500 to 5000 | NC(CNC(=O)Cc1ccncc1)c1ccc(C(=O)Nc2ccncc2)cc1 (stereo not given)
16 | 50 to 500 | NC(c1ccc(C(=O)Nc2ccncc2)cc1)C1CCCN1C(=O)Cc1ccc(F)c(Cl)c1 (stereo not given)
17 | 50 to 500 | NC(CNC(=O)C1(c2ccc(Cl)cc2F)CC1)c1ccc(C(=O)Nc2ccncc2)cc1 (stereo not given)
18 | 500 to 5000 | NC(c1ccc(C(=O)Nc2ccncc2)cc1)C1CCCN1C(=O)C1(c2ccc(F)c(F)c2)CC1 (stereo not given)

Row | IC50 [nM] | SMILES
19 | 500 to 5000 | CN(CC(N)c1ccc(C(=O)Nc2ccncc2)cc1)C(=O)C1(c2ccc(F)cc2)CC1 (stereo not given)
20 | 50 to 500 | Cc1cc(Cl)ccc1OC(C)C(=O)NCC(N)c1ccc(C(=O)Nc2ccncc2)cc1 (stereo not given)
21 | 500 to 5000 | CN(CC(N)c1ccc(C(=O)Nc2ccncc2)cc1)C(=O)C1(c2ccccc2)CC1 (stereo not given)
22 | 50 to 500 | COc1ccc(CC(=O)NCC(N)c2ccc(C(=O)Nc3ccncc3)cc2)cc1F (stereo not given)
23 | 500 to 5000 | CN(CC(N)c1ccc(C(=O)Nc2ccncc2)cc1)C(=O)C1(c2ccsc2)CC1 (stereo not given)
24 | 50 to 500 | NC(CC(=O)NCc1ccc(Cl)cc1Cl)c1ccc(C(=O)Nc2ccncc2)cc1 (stereo not given)
25 | 500 to 5000 | N[C@@H](CNC(=O)C1(c2ccc(Cl)cc2)CC1)c1ccc(C(=O)Nc2ccncc2)cc1
26 | 50 to 500 | NC(CNC(=S)Nc1ccc(Cl)cc1)c1ccc(C(=O)Nc2ccncc2)cc1 (stereo not given)
27 | 50 to 500 | Cc1cccc(CC(=O)NCC(N)c2ccc(C(=O)Nc3ccncc3)cc2)c1 (stereo not given)
28 | 50 to 500 | N[C@H](CNC(=O)C1(c2ccc(F)cc2)CCCC1)c1ccc(C(=O)Nc2ccncc2)cc1
29 | 500 to 5000 | CN(CC(N)c1ccc(C(=O)Nc2ccncc2)cc1)C(=O)C1(c2ccc(Cl)cc2)CC1 (stereo not given)
30 | 50 to 500 | COc1ccc(CNC(=O)NCC(N)c2ccc(C(=O)Nc3ccncc3)cc2)cc1 (stereo not given)
31 | 500 to 5000 | Cn1cccc1C(=O)NCC(N)c1ccc(C(=O)Nc2ccncc2)cc1 (stereo not given)
32 | 50 to 500 | NC(CC(=O)NCCc1ccc(Cl)cc1Cl)c1ccc(C(=O)Nc2ccncc2)cc1 (stereo not given)
33 | 50 to 500 | NC(CNC(=O)C1CCOc2ccc(F)cc21)c1ccc(C(=O)Nc2ccncc2)cc1 (stereo not given)
34 | 500 to 5000 | NC(CNC(=O)c1ccc(F)cc1)c1ccc(C(=O)Nc2ccncc2)cc1 (stereo not given)
35 | 50 to 500 | NC(CNC(=O)C1(c2ccc(Cl)c(Cl)c2)CCC1)c1ccc(C(=O)Nc2ccncc2)cc1 (stereo not given)
36 | 500 to 5000 | CN(CC(N)c1ccc(C(=O)Nc2ccncc2)cc1)C(=O)C1(c2ccc(F)c(Cl)c2)CC1 (stereo not given)

Second part, the compound before the results:

Row | SMILES | IC50 [nM]
37 | NC(CNC(=O)Cc1c[nH]c2ccccc12)c1ccc(C(=O)Nc2ccncc2)cc1 (stereo not given) | 50 to 500
38 | COc1cccc(OC)c1CNC(=O)CC(N)c1ccc(C(=O)Nc2ccncc2)cc1 (stereo not given) | 50 to 500
39 | COc1ccc(CC(=O)N2CCCC2C(N)c2ccc(C(=O)Nc3ccncc3)cc2)c(OC)c1 (stereo not given) | 500 to 5000
40 | CCOc1ccccc1CNC(=O)CC(N)c1ccc(C(=O)Nc2ccncc2)cc1 (stereo not given) | 50 to 500
41 | CS(=O)(=O)c1ccc(CNC(=O)CC(N)c2ccc(C(=O)Nc3ccncc3)cc2)cc1 (stereo not given) | 50 to 500
42 | NC(c1ccc(C(=O)Nc2ccncc2)cc1)C1CCCN1C(=O)Cc1ccc(O)c([N+](=O)[O-])c1 (stereo not given) | 500 to 5000
43 | N[C@H](CC(=O)N[C@@H]1CCCc2ccccc21)c1ccc(C(=O)Nc2ccncc2)cc1 | < 50
44 | NC(CNC(=O)[C@H]1CCC(=O)N1)c1ccc(C(=O)Nc2ccncc2)cc1 (stereo not given in full) | 50 to 500
45 | COc1ccc(CC(=O)N2CCCC2C(N)c2ccc(C(=O)Nc3ccncc3)cc2)cc1 (stereo not given) | 50 to 500
46 | N[C@H](CC(=O)N[C@@H]1COc2ccccc21)c1ccc(C(=O)Nc2ccncc2)cc1 | < 50
47 | CCNC(=O)CC(N)c1ccc(C(=O)Nc2ccncc2)cc1 (stereo not given) | 50 to 500
48 | NC(CC(=O)NCc1ccc(OC(F)(F)F)cc1)c1ccc(C(=O)Nc2ccncc2)cc1 (stereo not given) | 50 to 500
49 | CCCC(=O)NCC(N)c1ccc(C(=O)Nc2ccncc2)cc1 (stereo not given) | 500 to 5000
50 | CCN(CC)c1ccc(C(=O)NCC(N)c2ccc(C(=O)Nc3ccncc3)cc2)cc1 (stereo not given) | 500 to 5000
51 | CC(=NOC(C)(C)C)c1ccc(C(=O)NCC(N)c2ccc(C(=O)Nc3ccncc3)cc2)s1 (stereo not given) | 500 to 5000
52 | NC(CC(=O)NCc1ccccn1)c1ccc(C(=O)Nc2ccncc2)cc1 (stereo not given) | 50 to 500
53 | NC(c1ccc(C(=O)Nc2ccncc2)cc1)C1CCCN1C(=O)C1(c2ccc(F)cc2)CCCC1 (stereo not given) | 500 to 5000
54 | NC(CNC(=O)CSc1ncccn1)c1ccc(C(=O)Nc2ccncc2)cc1 (stereo not given) | 500 to 5000
55 | CCCCCCCCC(=O)NCC(N)c1ccc(C(=O)Nc2ccncc2)cc1 (stereo not given) | 50 to 500
56 | CN(CC(N)c1ccc(C(=O)Nc2ccncc2)cc1)C(=O)C(C)(C)c1ccc(Cl)cc1 (stereo not given) | 500 to 5000
57 | NC(CC(=O)N[C@H]1CCCc2ccccc21)c1ccc(C(=O)Nc2ccncc2)cc1 (stereo not given in full) | 50 to 500
58 | NC(c1ccc(C(=O)Nc2ccncc2)cc1)C1CCCN1C(=O)C(c1ccccc1)C1CCCCC1 (stereo not given) | 500 to 5000

Row | SMILES | IC50 [nM]
59 | CC(C)(C(=O)NCC(N)c1ccc(C(=O)Nc2ccncc2)cc1)c1ccsc1 (stereo not given) | 50 to 500
60 | NC(CC(=O)NCCc1cccc(F)c1)c1ccc(C(=O)Nc2ccncc2)cc1 (stereo not given) | 500 to 5000
61 | NC(CNC(=O)c1csc(-c2ccccc2)n1)c1ccc(C(=O)Nc2ccncc2)cc1 (stereo not given) | 500 to 5000
62 | N[C@@H](CC(=O)N[C@H]1CCCc2ccccc21)c1ccc(C(=O)Nc2ccncc2)cc1 | 50 to 500
63 | CN(CC(N)c1ccc(C(=O)Nc2ccncc2)cc1)C(=O)Cc1ccc(Br)cc1 (stereo not given) | 500 to 5000
64 | COc1ccc(CC(=O)N(C)CC(N)c2ccc(C(=O)Nc3ccncc3)cc2)cc1F (stereo not given) | 500 to 5000
65 | NC(CNC(=S)Nc1ccc(OC(F)(F)F)cc1)c1ccc(C(=O)Nc2ccncc2)cc1 (stereo not given) | 500 to 5000
66 | NC(c1ccc(C(=O)Nc2ccncc2)cc1)C1CCCN1C(=O)C1CCOc2ccc(F)cc21 (stereo not given) | 500 to 5000
67 | NC(CC(=O)NCc1cccc([N+](=O)[O-])c1)c1ccc(C(=O)Nc2ccncc2)cc1 (stereo not given) | 50 to 500
68 | CC1CC1C(=O)NCC(N)c1ccc(C(=O)Nc2ccncc2)cc1 (stereo not given) | 500 to 5000
69 | CC(C)(C(=S)NCC(N)c1ccc(C(=O)Nc2ccncc2)cc1)c1ccc(F)cc1 (stereo not given) | 50 to 500
70 | NC(CC(=O)NCc1ccccc1OC(F)(F)F)c1ccc(C(=O)Nc2ccncc2)cc1 (stereo not given) | 50 to 500
71 | COC(=O)C(C)NC(=O)CC(N)c1ccc(C(=O)Nc2ccncc2)cc1 (stereo not given) | 50 to 500
72 | Cc1ccc2[nH]cc(CCNC(=O)CC(N)c3ccc(C(=O)Nc4ccncc4)cc3)c2c1 (stereo not given) | 50 to 500
73 | NC(c1ccc(C(=O)Nc2ccncc2)cc1)C1CCCN1C(=O)C(c1ccccc1)C1CCCC1 (stereo not given) | 500 to 5000
74 | CN(CC(N)c1ccc(C(=O)Nc2ccncc2)cc1)C(=O)C(C)(C)c1ccc(F)c(Cl)c1 (stereo not given) | 500 to 5000
75 | N[C@H](CC(=O)N[C@H]1CCCc2ccccc21)c1ccc(C(=O)Nc2ccncc2)cc1 | 50 to 500
76 | NC(CC(=O)NC1CCCc2ccccc21)c1ccc(C(=O)Nc2ccncc2)cc1 (stereo not given) | 50 to 500
77 | NC(CNC(=O)Cc1ccc(-c2ccccc2)cc1)c1ccc(C(=O)Nc2ccncc2)cc1 (stereo not given) | 500 to 5000
78 | CCOc1ccccc1CCNC(=O)CC(N)c1ccc(C(=O)Nc2ccncc2)cc1 (stereo not given) | 50 to 500
79 | NC(CC(=O)Nc1cc(-c2ccco2)[nH]n1)c1ccc(C(=O)Nc2ccncc2)cc1 (stereo not given) | 50 to 500
80 | COc1ccccc1CC(=O)N1CCCC1C(N)c1ccc(C(=O)Nc2ccncc2)cc1 (stereo not given) | 500 to 5000

Row | SMILES | IC50 [nM]
81 | Cc1ccccc1CNC(=O)CC(N)c1ccc(C(=O)Nc2ccncc2)cc1 (stereo not given) | 50 to 500
82 | NC(c1ccc(C(=O)Nc2ccncc2)cc1)C1CCCN1C(=O)Cc1ccc2ccccc2c1 (stereo not given) | 500 to 5000
83 | NC(CC(=O)NCCc1ccc(Oc2ccccc2)cc1)c1ccc(C(=O)Nc2ccncc2)cc1 (stereo not given) | 50 to 500
84 | CC[C@H](NC(=O)CC(N)c1ccc(C(=O)Nc2ccncc2)cc1)c1ccccc1 (stereo not given in full) | 50 to 500
85 | COC1CCC(C(=O)NCC(N)c2ccc(C(=O)Nc3ccncc3)cc2)CC1 (stereo not given) | 500 to 5000
86 | COc1cc(CC(=O)N2CCCC2C(N)c2ccc(C(=O)Nc3ccncc3)cc2)cc(OC)c1OC (stereo not given) | 500 to 5000
87 | NC(c1ccc(C(=O)Nc2ccncc2)cc1)C1CCCN1C(=O)C1CC(=O)c2ccccc21 (stereo not given) | 500 to 5000
88 | CN(CC(N)c1ccc(C(=O)Nc2ccncc2)cc1)C(=O)Cc1ccc(F)cc1 (stereo not given) | 500 to 5000
89 | COc1ccc(CNC(=O)CC(N)c2ccc(C(=O)Nc3ccncc3)cc2)c(OC)c1 (stereo not given) | 50 to 500
90 | NC(CNC(=S)Nc1cccc2ccccc12)c1ccc(C(=O)Nc2ccncc2)cc1 (stereo not given) | 50 to 500
91 | CC(Cc1ccc(Cl)cc1)NC(=O)CC(N)c1ccc(C(=O)Nc2ccncc2)cc1 (stereo not given) | 50 to 500
92 | NC(CC(=O)N[C@@H]1CCCc2ccccc21)c1ccc(C(=O)Nc2ccncc2)cc1 (stereo not given in full) | 50 to 500
93 | CN(CC(N)c1ccc(C(=O)Nc2ccncc2)cc1)C(=O)Cc1ccc(-c2ccccc2)cc1 (stereo not given) | 500 to 5000
94 | CN(CC(N)c1ccc(C(=O)Nc2ccncc2)cc1)C(=O)C(c1ccccc1)C1CCCC1 (stereo not given) | 5000 to 50000
95 | Cc1ccc(CC(=O)N2CCCC2C(N)c2ccc(C(=O)Nc3ccncc3)cc2)cc1 (stereo not given) | 500 to 5000
96 | NC(c1ccc(C(=O)Nc2ccncc2)cc1)C1CCCN1C(=O)Cc1cccc2ccccc12 (stereo not given) | 500 to 5000
97 | CC(C)(C)NC(=O)NCC(N)c1ccc(C(=O)Nc2ccncc2)cc1 (stereo not given) | 500 to 5000
98 | CC(C)(C)ON=Cc1ccc(C(=O)NCC(N)c2ccc(C(=O)Nc3ccncc3)cc2)cc1 (stereo not given) | 500 to 5000
99 | NC(c1ccc(C(=O)Nc2ccncc2)cc1)C1CCCN1C(=O)Cc1cncc(Br)c1 (stereo not given) | 500 to 5000
100 | COc1ccc(NC(=O)CC(N)c2ccc(C(=O)Nc3ccncc3)cc2)cc1 (stereo not given) | 50 to 500
